Results published in patent US8227408B2, “Leptin as an anti-amyloidogenic biologic and methods for delaying the onset and reducing Alzheimer's disease-like pathology” (Neurotez, Inc., priority 2005, dated 2012).

Experiments:
[1] = tested on: Neuro2a cells stably transfected with hyg-sa134 (SEAP-APP); experiment: Aβ production by Neuro2a cells stably transfected with hyg-sa134 (total Aβ in media, sandwich ELISA); assay type: cell-based, mouse; conditions: for Aβ production / levels of Aβ in the media (in words): 2 or 5 h treatment; for Neuro2a/SEAP-APP Aβ(% control): total Aβ in conditioned media, concentration (TOFA 200 μM, cerulenin 200 μM, etomoxir 40 μM, peptide YY (3-36) 25 μM, CNTF 25 μM, leptin 400 ng/ml), mean ± SEM, 4 experiments, NS = non-significant; for Neuro2a/SEAP-APP Aβ(% control) / Aβ production (in words): 5 h
Method: (§1) Neuro2a (mouse neuroblastoma) stably transfected with hyg-sa134, a pcDNA3.1/Hygro plasmid (Invitrogen, CA) modified to express a fusion protein of secreted alkaline phosphatase (SEAP) and a fragment of APP consisting of the C-terminal 134 amino acids (“CAPP134”) (SEQ ID NO:10) were maintained in culture as described ([…]) in the presence of 400 μg/ml of hygromycin. SEQ ID NO: 11 is the DNA sequence of the entire hygsa134 vector, which was derived from the pcDNA3.1/Hygro vector by genetic manipulation to insert the DNA sequences for SEAP and CAPP134. The SEAP-CAPP cDNA insert from hyg-sa134 was also subcloned into an adenoviral vector using the Adeno Vator system (Qbiogene, Calif.). The DNA sequence for SEAP (corresponding to nucleotides 981-2441 of hyg-sa134) (SEQ ID NO: 9) is located 5′ to the DNA sequence (SEQ ID NO: 12) coding for CAPP134 (SEQ ID NO: 10).
(§2) SY5Y and hyg-sa134-Neuro2a cells were treated at 80% confluency (see below). Primary neural cultures from mouse embryos were allowed to grow for 6-12 days following plating and prior to viral infection and treatments.
About 5 μg/ml or about 10 μg/ml water-soluble cholesterol was added to cultures for 2 or 5 hours. Water soluble cholesterol (Sigma-Aldrich, MO) is a solution made of cholesterol balanced with cyclodextrin CDX (40 mg cholesterol per gr CDX). For comparison, cultures were treated with the equivalent amount of the resin alone, which leads to depletion of cholesterol in the cultures (Simons et al., Proc Natl Acad Sci USA. 95:6460-4 (1998)).
(§3) About 100 ng/ml or about 400 ng/ml leptin (Harbor-UCLA, CA), was added in cell culture medium for 2 or 5 h. Cells were approximately 80% confluent at the time of treatment. Peptide YY (3-36) (Phoenix Pharmaceuticals, Inc., CA), and CNTF (Sigma-Aldrich, Mo.) were added at about 25 μM or 150 μM for the same incubation periods. TOFA, etomoxir (Research Biochemicals International, MA) and cerulenin (Sigma-Aldrich, Mo.) were used as described below.
(§4) For the determination of Aβ peptide several methodologies also were used. SY5Y cells in culture were metabolically labeled with ^35S-[Met] as described (Figueiredo-Pereira et al. J Neurochem. 72:1417-22 (1999)), followed by immunoprecipitation, resolution of the immunoprecipitates on SDS-PAGE, autoradiography, and densitometric analysis of the autoradiogram. Neuro2a cells were stably transfected with hyg-sa134 (K. Sambamurti, S. Carolina Medical Center, SC) and Aβ40 (SEQ ID NO: 4) plus Aβ42 (SEQ ID NO: 5) plus Aβ43 (SEQ ID NO: 6) (Total Aβ) in the medium then was quantified by sandwich ELISAs developed with 4G8 and 6 ε10 monoclonal antibodies (Signet, Mass.) as described (Figueiredo-Pereira et al., J Neurochem. 72:1417-22 (1999)). Commercially available ELISA kits (KMI Diagnostics, MN) were used for the separate determination of Aβ40 (SEQ ID NO:4) and Aβ42/43 (SEQ ID NO:5/SEQ ID NO:6) in formic acid extracts of mice brains. Flotillin was detected using monoclonal anti-flotillin-1 antibodies (BD Biosciences, CA). Actin was detected using monoclonal anti-actin antibodies (Research Diagnostics, Inc, NJ).
Human (SYSY) or mouse neuroblastoma cell-lines (Neuro2a) commonly are used to study amyloid β metabolism in vitro. Neuro2a cells are stably transfected with hyg-sa134 (SEQ ID NO: 11), a plasmid driving the expression of a recombinant fusion protein containing the human C-terminal fragment of APP of about 134 amino acids, CAPP134 (SEQ ID NO: 10). Here, 5Y5Y or Neuro2a cultures were treated for 2 or 5 h with about 100 ng/ml or about 400 ng/ml leptin (FIG. 4a, 4b). Similarly, primary neurons from embryonic rat brain, infected with an adenovirus to direct the expression of CAPP134 (SEQ ID NO:10) also were treated according to the same regimen. […]

[2] = tested on: SY5Y cells; experiment: Aβ production by SY5Y cells; assay type: cell-based, human; conditions: total Aβ in conditioned media, 5 h; concentration (TOFA 200 μM, cerulenin 200 μM, etomoxir 40 μM, peptide YY (3-36) 25 μM, CNTF 25 μM, leptin 400 ng/ml); mean ± SEM; NS = non-significant
From the text: (§5) Cell cultures, Treatments, Antibodies and Immunoassays. SY5Y cells (human neuroblastoma) were maintained in culture as described (Johnsingh et al., FEBS Lett. 465:53-8 (2000)). Primary neural cultures were obtained from ε16 rat embryonic cortex, as described (Shimoda et al., 1992. Brain Res. 586:319-31 (1992)). These were either grown as mixed cultures (Johnsingh et al., FEBS Lett. 465:53-8 (2000)) or grown under conditions that favor the isolation and proliferation of astrocytes (Takeshima et al., J Neurosci. 14:4769-79 (1994)).
as §2, §3, §4
(§6) Human (SYSY) or mouse neuroblastoma cell-lines (Neuro2a) commonly are used to study amyloid β metabolism in vitro. Neuro2a cells are stably transfected with hyg-sa134 (SEQ ID NO: 11), a plasmid driving the expression of a recombinant fusion protein containing the human C-terminal fragment of APP of about 134 amino acids, CAPP134 (SEQ ID NO: 10). Here, 5Y5Y or Neuro2a cultures were treated for 2 or 5 h with about 100 ng/ml or about 400 ng/ml leptin (FIG. 4a, 4b). Similarly, primary neurons from embryonic rat brain, infected with an adenovirus to direct the expression of CAPP134 (SEQ ID NO:10) also were treated according to the same regimen.

[3] = tested on: primary embryonic rat neurons infected with adenovirus; experiment: Aβ production by primary embryonic rat neurons infected with adenovirus (SEAP-APP); assay type: cell-based; conditions: total Aβ in conditioned media, 5 h; concentration (TOFA 200 μM, cerulenin 200 μM, etomoxir 40 μM, peptide YY (3-36) 25 μM, CNTF 25 μM, leptin 400 ng/ml); mean ± SEM; NS = non-significant
From the text: as §5, §1, §2, §6

[4] = tested on: SY5Y cells; experiment: 125I-Aβ uptake by SY5Y cells (apoE-dependent); assay type: cell-based, human; conditions: RAP 1 μM added together with Aβ or the Aβ/apoE complex
Method: Preparation of ApoE and binding with ^125I-Aβ. ApoE was isolated from the conditioned media of human embryonic kidney (HEK-293) cells stably-transfected with human apoE (having the ε3 allele or the ε4 allele) cDNA (Tezapsidis et al., FASEB J. 17:1322-1324 (2003)). These preparations, while usually poor in lipid, are fully functional for uptake experiments. ApoE then was pre-incubated with ^125I-Aβ overnight at 37° C. (Aβ/ApoE: 1/50 w/w) as described (Tezapsidis et al., FASEB J. 17:1322-1324 (2003)).
Aβ-uptake by SY5Y cells. Human ^125I-Aβ (iodinated at Tyr-10, Amersham Biosciences, IM 294) uptake was measured following addition of 0.1 nM ^125I-Aβ40 (SEQ ID NO: 4) to confluent SY5Y cells (60,000 cpm/ml) in the presence or absence of 100 ng/ml or 400 ng/ml leptin also included in a 24 h pre-incubation period. ^125I-Aβ was either added alone or was previously incubated with apoε3. In controls, Receptor Associated Protein (“RAP”, 1 μM) was added together with Aβ or the Aβ/apoE complex. RAP is an antagonist of a number of lipoprotein receptors (LaDu et al., Neurochem Int. 39:427-34 (2001)). After 24 h, the media were collected and subjected to scintillation counting for γ-Iradiation (Kang et al., 2000. J Clin Invest. 106:1159-66 (2000)). The amount of radioactivity was measured in both the trichloroacetic acid (10%) TCA pellets (representing intact Aβ) and the corresponding supernatants (representing degraded Aβ). 96.5±8.2% (mean±s.e.m., n=4 experiments, triplicate determinations) of the radioactivity found in the medium could be recovered in the TCA pellet and represented intact or oligomeric Aβ (not shown), when Aβ was pre-incubated with apoE.
The amount of TCA-precipitable radioactivity in the soluble fraction of cell lysates was compared to that in the total lysates, the ratio of which was typically about 0.8 to about 0.9 (not shown), to further verify that radioactivity was reduced in the media as a reflection of Aβ uptake by the cells, rather than due to non-specific binding to the extracellular surface of membranes or oligomerization/aggregation of Aβ.
In panel (a), Aβ uptake was measured in SY5Y cells following their treatment at 0 ng/ml, 100 ng/ml or 400 ng/ml leptin. Uptake also was measured in cells previously transfected with antisense DNA for PS1 as described (Tezapsidis et al., FASEB J. 17:1322-1324(2003)) (black). Uptake is expressed as the percentage of that observed with Aβ pre-incubated with apoε3 (medium gray) in the absence of leptin (first set of columns). […] Leptin induced a dose-dependent increase in Aβ uptake with a preference for apoε3 (medium gray) over apoε4 (light gray). In panel (b), SY5Y cells were pre-treated with […] cholesterol (+Chol) or normal medium (−Chol). Then Aβ uptake was measured following its preincubation with apoε3 (ε3) or apoε4 (ε4) in the absence (black) or the presence (gray) of about 400 ng/ml leptin. Cells were more resistant to taking-up Aβ when loaded with cholesterol. […] In panel (c), SY5Y cells were transiently transfected with SREBP-1 or SREBP-2 cDNA or an empty vector (Control). Then Aβ was measured in the medium by ELISAs (Figueiredo-Pereira et al., J Neurochem. 72:1417-22 (1999)) following treatment with (+) or without (−) leptin. […] In panel (d), Aβ uptake was measured in SY5Y cells prepared as in panel (c). Uptake was performed using Aβ/apoε3 complexes.

[5] = 25 μM (equimolar concentrations), Table 1 cells
[6] = higher (150 μM) concentrations, not shown

Molecule: C/C=C/C/C=C/CCC(=O)[C@H]1O[C@H]1C(N)=O [Cerulenin, cerulenin]
- Aβ production / levels of Aβ in the media (in words) [1]: mimicked
- Neuro2a/SEAP-APP Aβ(% control) [1]: 52 ± 12 % control
- SY5Y Aβ (% control) [2]: 65 ± 9, NS % control
- Neurons/SEAPP-APP Aβ (% control) [3]: 66 ± 5 % control

Molecule: CCCCCCCCCCCCCCOc1ccc(C(=O)O)o1 [TOFA, 5-(tetradecyloxy)-2-furancarboxylic acid]
- Aβ production / levels of Aβ in the media (in words) [1]: mimicked
- Neuro2a/SEAP-APP Aβ(% control) [1]: 40 ± 15 % control
- SY5Y Aβ (% control) [2]: 58 ± 12 % control
- Neurons/SEAPP-APP Aβ (% control) [3]: 35 ± 4 % control

Molecule: CCOC(=O)[C@@]1(CCCCCCOc2ccc(Cl)cc2)CO1 [Etomoxir]
- Aβ production / levels of Aβ in the media (in words) [1]: increased Aβ production
- Neuro2a/SEAP-APP Aβ(% control) [1]: 154 ± 14 % control
- SY5Y Aβ (% control) [2]: 142 ± 14 % control
- Neurons/SEAPP-APP Aβ (% control) [3]: 158 ± 14 % control

Molecule: Peptide YY (3-36): gut-derived hormone affecting daily food intake
- Aβ production (in words) [1, 5]: neither peptide changed Aβ production in a statistically significant way
- Aβ production (in words) [1, 6]: neither peptide changed Aβ production in a statistically significant way
- Neuro2a/SEAP-APP Aβ(% control) [1]: 92 ± 9, NS % control
- SY5Y Aβ (% control) [2]: 96 ± 7, NS % control
- Neurons/SEAPP-APP Aβ (% control) [3]: 98 ± 5, NS % control

Molecule: methyl-β-cyclodextrin
- Aβ production / levels of Aβ in the media (in words) [1]: lowering Aβ

B1: Ciliary neurotrophic factor: member of the gp130 family of cytokines regulating survival and differentiation of neurons (protein, UniProt P26441 1-200, looked up)
Ciliary neurotrophic factor: MAFTEHSPLTPHRRDLCSRSIWLARKIRSDLTALTESYVKHQGLNKNINLDSADGMPVASTDQWSELTEAERLQENLQAYRTFHVLLARLLEDQQVHFTPTEGDFHQAIHTLLLQVAAFAYQIEELMILLEYKIPRNEADGMPINVGDGGLFEKKLWGLKVLQELSQWTVRSIHDLRFISSHQTGIPARGSHYIANNKKM
- Aβ production (in words) [1, 5]: neither peptide changed Aβ production in a statistically significant way
- Aβ production (in words) [1, 6]: neither peptide changed Aβ production in a statistically significant way
- Neuro2a/SEAP-APP Aβ(% control) [1]: 95 ± 4, NS % control
- SY5Y Aβ (% control) [2]: 96 ± 8, NS % control
- Neurons/SEAPP-APP Aβ (% control) [3]: 89 ± 12, NS % control

B2: RAP: Receptor Associated Protein, antagonist of a number of lipoprotein receptors (protein)
chain: YSREKNQPKPSPKRESGEEFRMEKLNQLWEKAQRLHLPPVRLAELHADLKIQERDELAWKKLKLDGLDEDGEKEARLIRNLNVILAKYGLDGKKDARQVTSNSLSGTQEDGLDDPRLEKLWHKAKTSGKFSGEELDKLWREFLHHKEKVHEYNVLLETLSRTEEIHENVISPSDLSDIKGSVLHSRHTELKEKLRSINQGLDRLRRVSHQGYSTEAEFEEPRVIDLWDLAQSANLTDKELEAFREELKHFEAKIEKHNHYQKQLEIAHEKLRHAESVGDGERVSRSREKHALLEGRTKELGYTVKKHLQDLSGRISRARHNEL
- Aβ uptake [4]: abolished uptake
